Source: patent US9994594B2, “Inhibitors of arginase and their therapeutic applications” (MARS, INCORPORATED, priority 2010, dated 2018)
Counter-ions that a name gives are not always drawn.

How the values were obtained:
MDSC = conditions: tumor bearing mice; cited from earlier work
[1] = tested on: experimental autoimmune encephalomyelitis (EAE); conditions: compared with control animals; cited from earlier work
penile erectile response = experiment: Erectile dysfunction efficacy model: penile erectile response in vivo
Description: As described hereinabove, the compounds according to the invention are useful in the treatment and prevention of a variety of disorders and conditions that are affected by levels of nitric oxide (NO) regulated, in part, by arginase enzymes. The compounds are assessed for efficacy in such treatment and prevention by their performances in standardized in vivo tests. In vivo models to assess efficacy are developed for this purpose as described below.
The inventive compounds are candidate therapeutics for treating ED, as assessed by measurements of penile erectile response according to a protocol described by Wingard C, Fulton J, and Husain S, J Sex Med 4: 348-363, 2007.

bacterial arginase = conditions: H. pylori; cited from earlier work
central airways = conditions: murine chronic model; cited from earlier work
human arginase I (ARG I) = target: T1, human arginase I (ARG I) (Homo sapiens, UniProt P05089); experiment: Inhibition of arginase I, spectrophotometric urea assay at 530 nm; format: biochemical; conditions: Formula I compounds, Table 2; read-out: Potency (ARG I)
T1 sequence (P05089 1-322): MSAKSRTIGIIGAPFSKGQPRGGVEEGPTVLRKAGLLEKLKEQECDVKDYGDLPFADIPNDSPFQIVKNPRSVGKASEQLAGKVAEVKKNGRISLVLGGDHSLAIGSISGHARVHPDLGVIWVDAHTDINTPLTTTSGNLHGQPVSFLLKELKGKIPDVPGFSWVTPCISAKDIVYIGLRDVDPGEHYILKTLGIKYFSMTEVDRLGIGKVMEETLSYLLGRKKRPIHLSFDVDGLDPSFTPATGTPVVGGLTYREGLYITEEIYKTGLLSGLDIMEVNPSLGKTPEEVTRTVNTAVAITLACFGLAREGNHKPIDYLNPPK
Outline: (§1)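 IC50 was derived by regression of OD530 normalized to uninhibited-enzyme controls against log concentration. Urea from 60-min, 37 °C turnover of L-arginine with manganese sulfate was detected after acid o-phthaldialdehyde/primaquine quench and 10 min colour development. Arginase I and II came from 100 ng/ml stocks in pH 7.4 phosphate with ovalbumin.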

arginase II (ARG II) = target: T2, arginase II (ARG II) (Homo sapiens, UniProt P78540); experiment: Inhibition of arginase II, spectrophotometric urea assay at 530 nm; format: biochemical; conditions: Formula I compounds, Table 2; read-out: Potency (ARG II)
T2 sequence (P78540 23-354): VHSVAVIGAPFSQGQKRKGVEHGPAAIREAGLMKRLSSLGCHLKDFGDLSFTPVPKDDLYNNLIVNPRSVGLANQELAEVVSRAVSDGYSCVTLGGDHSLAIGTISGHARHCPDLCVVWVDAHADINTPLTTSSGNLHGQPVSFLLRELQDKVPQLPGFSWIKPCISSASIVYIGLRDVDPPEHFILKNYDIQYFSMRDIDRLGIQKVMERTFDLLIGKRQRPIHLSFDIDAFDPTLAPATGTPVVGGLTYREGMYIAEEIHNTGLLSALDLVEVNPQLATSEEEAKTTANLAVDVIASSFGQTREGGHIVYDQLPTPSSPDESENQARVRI
Outline: as §1

[2] = spontaneously hypertensive animals; cited from earlier work

Row | SMILES | IC50 (human arginase I (ARG I)) [nM] | IC50 (arginase II (ARG II)) [nM] | also measured
1 | O=c1[nH]cc(F)c(=O)[nH]1 [5-Fluorouracil] |  |  | MDSC immunesuppression (MDSC): eliminates MDSC immunesuppression; tumor growth (MDSC): delayed tumor growth
2 | NC(CCCCB(O)O)C(=O)O (centres unmarked) [ABH, amino-6-boronohexanoic acid] |  |  | severity of EAE [1]: much milder form of EAE than in control animals
3 | N[C@@](CCCCB(O)O)(CCN1CCCCC1)C(=O)O [Enantiomer of Ex. 13] |  |  | Effect: increased erectile response relative to baseline (penile erectile response; @ 2.5 V stimulation): 0 (0 <10%); eliciting erectile responses in vivo (penile erectile response; in words): is not
4 | NC(=NCCC[C@H](N)C(=O)O)NO [NOHA] |  |  | CD3 expression on T-cells (bacterial arginase): reestablished CD3 expression on T-cells; production of NO by macrophages (bacterial arginase): enhanced production of NO by macrophages
5 | N[C@@H](CSCCB(O)O)C(=O)O [S-(2-boronoethyl)-L-cysteine] |  |  | methacholine induced responsiveness of the central airways (central airways): attenuated
6 | NC(CCCCB(O)O)(CCN1CCC(Cc2ccc(C(F)(F)F)cc2)CC1)C(=O)O (centres unmarked) [compound 126, 2-amino-6-borono-2-(2-(4-(4-(trifluoromethyl)benzyl)piperidine-1-yl)ethyl)hexanoic acid dihydrochloride] | 251 to 1000 | 251 to 1000 | 
7 | NC(CCCCB(O)O)(CCN1CCC(Cc2ccc(F)cc2)CC1)C(=O)O (centres unmarked) [compound 127, 2-amino-6-borono-2-(2-(4-(4-fluorobenzyl)piperidin-1-yl)ethyl)hexanoic acid dihydrochloride] | 251 to 1000 | 251 to 1000 | 
8 | CC1(C)CCN(CCC(N)(CCCCB(O)O)C(=O)O)CC1 (centres unmarked) [compound 128, 2-amino-6-borono-2-(2-(4,4-dimethylpiperidin-1-yl)ethyl)hexanoic acid dihydrochloride] | 251 to 1000 | 1000 to 2000 | 
9 | CCCC1CCN(CCC(N)(CCCCB(O)O)C(=O)O)CC1 (centres unmarked) [compound 129, 2-amino-6-borono-2-(2-(4-propylpiperidin-1-yl)ethyl)hexanoic acid dihydrochloride] | 251 to 1000 | 1000 to 2000 | 
10 | CCN1Cc2ccccc2CC1CCC(N)(CCCCB(O)O)C(=O)O (centres unmarked) [compound 130, 2-amino-6-borono-2-(2-(2-ethyl-1,2,3,4-tetrahydroisoquinolin-3-yl)ethyl)hexanoic acid dihydrochloride] | 0.1 to 250 | 251 to 1000 | 
11 | NC(CCCCB(O)O)(CCC1Cc2ccccc2CN1Cc1ccc(Cl)cc1)C(=O)O (centres unmarked) [compound 132, 2-amino-6-borono-2-(2-(2-(4-chlorobenzyl)-1,2,3,4-tetrahydroisoquinolin-3-yl)ethyl)hexanoic acid dihydrochloride] | 0.1 to 250 | 251 to 1000 | 
12 | CC(C)CCN1Cc2ccccc2CC1CCC(N)(CCCCB(O)O)C(=O)O (centres unmarked) [compound 133, 2-amino-6-borono-2-(2-(2-isopentyl-1,2,3,4-tetrahydroisoquinolin-3-yl)ethyl)hexanoic acid dihydrochloride] | 0.1 to 250 | 0.1 to 250 | 
13 | NC(CCCCB(O)O)(CCC1Cc2ccccc2CN1CC1CCCCC1)C(=O)O (centres unmarked) [compound 134, 2-amino-6-borono-2-(2-(2-(cyclohexylmethyl)-1,2,3,4-tetrahydroisoquinolin-3-yl)ethyl)hexanoic acid dihydrochloride] | 0.1 to 250 | 251 to 1000 | 
14 | CC(C)CN1Cc2ccccc2CC1CCC(N)(CCCCB(O)O)C(=O)O (centres unmarked) [compound 135, 2-amino-6-borono-2-(2-(2-isobutyl-1,2,3,4-tetrahydroisoquinolin-3-yl)ethyl)hexanoic acid dihydrochloride] | 0.1 to 250 | 251 to 1000 | 
15 | CNC(CCCCB(O)O)(CCCNCc1ccc(Cl)c(Cl)c1)C(=O)O (centres unmarked) [compound 136, 6-borono-2-(3-(3,4-dichlorobenzylamino)propyl)-2-(methylamino)hexanoic acid dihydrochloride] | 0.1 to 250 | 0.1 to 250 | 
16 | CNC(CCCCB(O)O)(CCCN1CCCC1)C(=O)O (centres unmarked) [compound 137, 6-borono-2-(methylamino)-2-(3-(pyrrolidin-1-yl)propyl)hexanoic acid dihydrochloride] | 0.1 to 250 | 0.1 to 250 | 
17 | CNC(CCCCB(O)O)(CCCNC1Cc2ccccc2C1)C(=O)O (centres unmarked) [compound 138, 6-borono-2-(3-(2,3-dihydro-1H-inden-2-ylamino)propyl)-2-(methylamino)hexanoic acid dihydrochloride] | 0.1 to 250 | 0.1 to 250 | 
18 | CNC(CCCCB(O)O)(CCCNCc1ccc(Cl)cc1)C(=O)O (centres unmarked) [compound 139, 6-borono-2-(3-(4-chlorobenzylamino)propyl)-2-(methylamino)hexanoic acid dihydrochloride] | 0.1 to 250 | 0.1 to 250 | 
19 | NC(CCCCB(O)O)(CCCNCCc1ccc(Cl)cc1Cl)C(=O)O (centres unmarked) [compound 140, 2-amino-6-borono-2-(3-(2,4-dichlorophenethylamino)propyl)hexanoic acid dihydrochloride] | 0.1 to 250 | 0.1 to 250 | 
20 | NC(CCCCB(O)O)(CCCNCc1ccc(Cl)c(Cl)c1)C(=O)O (centres unmarked) [compound 141, 2-amino-6-borono-2-(3-(3,4-dichlorobenzylamino)propyl)hexanoic acid dihydrochloride] | 0.1 to 250 | 0.1 to 250 | 
21 | NC(CCCCB(O)O)(CC[C@@H]1CCCN1)C(=O)O (stereo partly drawn) [compound 143, 2-amino-6-borono-2-(2-((S)-pyrrolidin-2-yl)ethyl)hexanoic acid dihydrochloride] | 0.1 to 250 | 0.1 to 250 | 
22 | CNC(CCCCB(O)O)(CC[C@@H]1CCCN1)C(=O)O (stereo partly drawn) [compound 144, 6-borono-2-(methylamino)-2-(2-((S)-pyrrolidin-2-yl)ethyl)hexanoic acid dihydrochloride] | 0.1 to 250 | 0.1 to 250 | 
23 | O=C(O)C(CCCCB(O)O)NCc1ccc(Cl)cc1 (centres unmarked) [compound 145, 6-borono-2-(4-chlorobenzylamino)hexanoic acid hydrochloride] | 1000 to 2000 | 1000 to 2000 | 
24 | CNC(CCCCB(O)O)C(=O)O (centres unmarked) [compound 146, 6-borono-2-(methylamino)hexanoic acid hydrochloride] | 1000 to 2000 | 2000 to 5000 | 
25 | NC(CCCCB(O)O)(CCCN1CCCCC1)C(=O)O (centres unmarked) [compound 147, 2-amino-6-borono-2-(3-(piperidin-1-yl)propyl)hexanoic acid dihydrochloride] | 0.1 to 250 | 251 to 1000 | 
26 | CNC(CCCCB(O)O)(CCCN1CCCCC1)C(=O)O (centres unmarked) [compound 148, 6-borono-2-(methylamino)-2-(3-(piperidin-1-yl)propyl)hexanoic acid dihydrochloride] | 0.1 to 250 | 0.1 to 250 | 
27 | CNC(CCCCB(O)O)(CCN1CCCCC1)C(=O)O (centres unmarked) [compound 149, 6-borono-2-(methylamino)-2-(2-(piperidin-1-yl)ethyl)hexanoic acid] | 0.1 to 250 | 0.1 to 250 | 
28 | Nc1ccn([C@@H]2O[C@H](CO)[C@@H](O)C2(F)F)c(=O)n1 [gemcitabine] |  |  | MDSC immunesuppression (MDSC): eliminates MDSC immunesuppression; tumor growth (MDSC): delayed tumor growth
29 | N=C(NO)NCC[C@H](N)C(=O)O [nor-NOHA, N^ω-hydroxy-nor-L-arginine] |  |  | blood pressure [2]: lowered blood pressure; vascular response of resistance vessels to blood flow and pressure [2]: improved the vascular response of resistance vessels to blood flow and pressure
